Test results: ChEMBL document CHEMBL4052642, “4-Methyl-6,7-dihydro-4H-triazolo[4,5-c]pyridine-Based P2X7 Receptor Antagonists: Optimization of Pharmacokinetic Properties Leading to the Identification of a Clinical Candidate” (J Med Chem, 2017)
Values after ≈ are worked out from the molar mass of the structure shown.

Assays:
Cytochrome P450 3A4 = Cytochrome P450 3A4 (Homo sapiens, UniProt P08684); assay: Inhibition of CYP3A4 in human liver microsomes using midazolam as substrate after 15 mins by LC-MS/MS analysis; assay type: ADME
Cytochrome P450 2D6 = Cytochrome P450 2D6 (Homo sapiens, UniProt P10635); assay: Inhibition of CYP2D6 in human liver microsomes using dextromethorphan as substrate after 15 mins by LC-MS/MS analysis; assay type: ADME
Cytochrome P450 2C9 = Cytochrome P450 2C9 (Homo sapiens, UniProt P11712); assay: Inhibition of CYP2C9 in human liver microsomes using diclofenac as substrate after 15 mins by LC-MS/MS analysis; assay type: ADME
Cytochrome P450 2C19 [1] = molecular target: T1, Cytochrome P450 2C19 (Homo sapiens, UniProt P33261); assay: Inhibition of CYP2C19 in human liver microsomes using S-mephenytoin as substrate after 15 mins by LC-MS/MS analysis; assay type: ADME
Cytochrome P450 2C8 = molecular target: T2, Cytochrome P450 2C8 (Homo sapiens, UniProt P10632); assay: Inhibition of CYP2C8 in human liver microsomes using paclitaxel as substrate after 15 mins by LC-MS/MS analysis; assay type: ADME
T2 sequence (P10632 whole entry): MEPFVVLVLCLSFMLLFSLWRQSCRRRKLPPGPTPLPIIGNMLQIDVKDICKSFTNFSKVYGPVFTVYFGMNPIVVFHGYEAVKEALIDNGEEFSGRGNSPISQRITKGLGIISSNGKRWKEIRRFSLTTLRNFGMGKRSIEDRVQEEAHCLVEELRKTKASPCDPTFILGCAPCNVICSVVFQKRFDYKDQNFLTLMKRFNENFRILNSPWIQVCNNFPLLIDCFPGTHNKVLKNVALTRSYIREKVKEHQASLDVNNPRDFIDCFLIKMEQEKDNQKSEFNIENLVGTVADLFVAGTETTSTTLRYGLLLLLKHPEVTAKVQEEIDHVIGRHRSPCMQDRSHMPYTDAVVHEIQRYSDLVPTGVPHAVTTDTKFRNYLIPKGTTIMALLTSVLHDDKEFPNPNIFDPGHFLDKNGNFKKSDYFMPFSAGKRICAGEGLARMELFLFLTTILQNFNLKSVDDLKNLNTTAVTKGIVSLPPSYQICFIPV

Cytochrome P450 1A2 = molecular target: T3, Cytochrome P450 1A2 (Homo sapiens, UniProt P05177); assay: Inhibition of CYP1A2 in human liver microsomes using phenacetin as substrate after 15 mins by LC-MS/MS analysis; assay type: ADME
T3 sequence (P05177 whole entry): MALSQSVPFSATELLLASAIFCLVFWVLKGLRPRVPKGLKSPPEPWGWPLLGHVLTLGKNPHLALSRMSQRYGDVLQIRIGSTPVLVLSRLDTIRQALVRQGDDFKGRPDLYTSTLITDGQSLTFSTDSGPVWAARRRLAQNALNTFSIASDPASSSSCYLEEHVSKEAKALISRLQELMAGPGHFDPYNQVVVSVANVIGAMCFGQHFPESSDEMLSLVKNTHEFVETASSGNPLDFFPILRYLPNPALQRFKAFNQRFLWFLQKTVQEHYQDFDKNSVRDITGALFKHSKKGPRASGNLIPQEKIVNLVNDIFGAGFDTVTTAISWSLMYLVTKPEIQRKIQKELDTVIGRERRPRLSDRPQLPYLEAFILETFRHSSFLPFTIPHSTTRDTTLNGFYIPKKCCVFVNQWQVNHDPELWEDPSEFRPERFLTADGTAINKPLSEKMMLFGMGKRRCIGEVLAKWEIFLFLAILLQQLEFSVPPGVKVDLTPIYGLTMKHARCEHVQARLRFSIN

Rattus norvegicus [2] = assay: Inhibition of Bz-ATP-induced IL-1beta release in sc dosed Sprague-Dawley rat hippocampus preincubated for 1 hr followed by Bz-ATP challenge measured after 2 hrs by microdialysis method; assay type: functional, organism-based
Rattus norvegicus [3] = assay: Ex vivo receptor occupancy at P2X7 in sc dosed Sprague-Dawley rat brain after 60 mins by autoradiography; assay type: functional
[4] = Oral bioavailability in Sprague-Dawley rat at 5 mg/kg by LC-MS/MS analysis; assay type: ADME, organism-based; conditions: in vivo
[5] = Oral bioavailability in beagle dog at 3 mg/kg by LC-MS/MS analysis; assay type: ADME, organism-based, Canis lupus familiaris; conditions: in vivo
[6] = Half life in beagle dog at 1 mg/kg, iv by LC-MS/MS analysis; assay type: ADME, organism-based, Canis lupus familiaris; conditions: in vivo
[7] = Volume of distribution at steady state in beagle dog at 1 mg/kg, iv or 3 mg/kg, po by LC-MS/MS analysis; assay type: ADME, organism-based, Canis lupus familiaris; conditions: in vivo, read-out: Vdss
[8] = Half life in Sprague-Dawley rat at 1 mg/kg, iv by LC-MS/MS analysis; assay type: ADME, organism-based; conditions: in vivo
[9] = Volume of distribution at steady state in Sprague-Dawley rat at 1 mg/kg, iv or 5 mg/kg, po by LC-MS/MS analysis; assay type: ADME, organism-based; conditions: in vivo, read-out: Vdss
[10] = Clearance in beagle dog at 1 mg/kg, iv or 3 mg/kg, po by LC-MS/MS analysis; assay type: ADME, organism-based, Canis lupus familiaris; conditions: in vivo
[11] = Solubility of compound in phosphate buffer at pH 7 after 3 days; assay type: physicochemical
[12] = Clearance in Sprague-Dawley rat at 1 mg/kg, iv or 5 mg/kg, po by LC-MS/MS analysis; assay type: ADME, organism-based; conditions: in vivo
[13] = Protein binding in rat brain at 5 uM after 5 hrs by equilibrium dialysis method; assay type: ADME, tissue-based; conditions: read-out: PB (converted)
[14] = Solubility of compound in phosphate buffer at pH 2 after 3 days; assay type: physicochemical
[15] = Protein binding in human plasma at 1 uM after 6 hrs by equilibrium dialysis method; assay type: ADME, cell-free; conditions: read-out: PPB (converted)
[16] = Protein binding in mouse plasma at 1 uM after 6 hrs by equilibrium dialysis method; assay type: ADME, cell-free; conditions: read-out: PPB (converted)
[17] = Protein binding in rat plasma at 1 uM after 6 hrs by equilibrium dialysis method; assay type: ADME, cell-free; conditions: read-out: PPB (converted)
[18] = molecular target: Voltage-gated inwardly rectifying potassium channel KCNH2 (Homo sapiens, UniProt Q12809); assay: Inhibition of [3H]-dofetilide binding to human ERG expressed in HEK293 cells; assay type: cell-based
Rattus norvegicus [19] = assay: Toxicity in rat assessed as autoinduction at 50 to 500 mg/kg administered via oral gavage on day 1 and day 5; assay type: organism-based; conditions: in vivo
Rattus norvegicus [20] = assay: Toxicity in rat assessed as increase in liver weight at 50 to 500 mg/kg administered via oral gavage on day 1 and day 4; assay type: organism-based; conditions: in vivo
[21] = Drug metabolism in cynomolgus monkey liver microsomes assessed as oxidation of methyl group on pyrimidine at 1 uM after 5 to 60 mins by LC-MS/MS analysis; assay type: ADME, Macaca fascicularis, microsome
Liver [22] = assay: Drug metabolism in dog liver microsomes assessed as oxidation of methyl group on pyrimidine at 1 uM after 5 to 60 mins by LC-MS/MS analysis; assay type: ADME, Canis lupus familiaris, microsome
Liver [23] = assay: Drug metabolism in rat liver microsomes assessed as oxidation of methyl group on pyrimidine at 1 uM after 5 to 60 mins by LC-MS/MS analysis; assay type: ADME, microsome
Liver [24] = assay: Drug metabolism in human liver microsomes assessed as oxidation of methyl group on pyrimidine at 1 uM after 5 to 60 mins by LC-MS/MS analysis; assay type: ADME, microsome
Liver [25] = assay: Drug metabolism in mouse liver microsomes assessed as oxidation of methyl group on pyrimidine at 1 uM after 5 to 60 mins by LC-MS/MS analysis; assay type: ADME, microsome
Cytochrome P450 2C19 [26] = molecular target: T1, Cytochrome P450 2C19; assay: Drug metabolism assessed as recombinant human CYP2C19-mediated metabolite formation; assay type: ADME; conditions: recombinant enzyme
[27] = Oral bioavailability in beagle dog at 2.5 mg/kg by LC-MS/MS analysis; assay type: ADME, organism-based, Canis lupus familiaris; conditions: beagle, in vivo
[28] = Half life in beagle dog at 0.5 mg/kg, iv by LC-MS/MS analysis; assay type: ADME, organism-based, Canis lupus familiaris; conditions: in vivo
[29] = Volume of distribution at steady state in beagle dog at 0.5 mg/kg, iv or 2.5 mg/kg, po by LC-MS/MS analysis; assay type: ADME, organism-based, Canis lupus familiaris; conditions: in vivo, read-out: Vdss
[30] = Clearance in beagle dog at 0.5 mg/kg, iv or 2.5 mg/kg, po by LC-MS/MS analysis; assay type: ADME, organism-based, Canis lupus familiaris; conditions: in vivo
Rattus norvegicus [31] = assay: Ex vivo receptor occupancy at P2X7 in po dosed Sprague-Dawley rat brain after 60 mins by autoradiography; assay type: functional; conditions: 1 h
Rattus norvegicus [32] = assay: Ex vivo receptor occupancy at P2X7 in po dosed Sprague-Dawley rat brain assessed as plasma concentration required to achieve EC50 after 60 mins by autoradiography; assay type: functional, organism-based
Rattus norvegicus [33] = assay: Drug level in Sprague-Dawley rat treated with(R)-(2-Chloro-3-(trifluoromethyl)phenyl)(4-methyl-1-(pyrimidin-2-yl)-1,4,6,7-tetrahydro-5H-[1,2,3]triazolo[4,5-c]pyridin-5-yl)methanone at 1 mg/kg, iv or 5 mg/kg, po by LC-MS/MS analysis; assay type: ADME, organism-based; conditions: in vivo

T1 sequence (P33261 whole entry): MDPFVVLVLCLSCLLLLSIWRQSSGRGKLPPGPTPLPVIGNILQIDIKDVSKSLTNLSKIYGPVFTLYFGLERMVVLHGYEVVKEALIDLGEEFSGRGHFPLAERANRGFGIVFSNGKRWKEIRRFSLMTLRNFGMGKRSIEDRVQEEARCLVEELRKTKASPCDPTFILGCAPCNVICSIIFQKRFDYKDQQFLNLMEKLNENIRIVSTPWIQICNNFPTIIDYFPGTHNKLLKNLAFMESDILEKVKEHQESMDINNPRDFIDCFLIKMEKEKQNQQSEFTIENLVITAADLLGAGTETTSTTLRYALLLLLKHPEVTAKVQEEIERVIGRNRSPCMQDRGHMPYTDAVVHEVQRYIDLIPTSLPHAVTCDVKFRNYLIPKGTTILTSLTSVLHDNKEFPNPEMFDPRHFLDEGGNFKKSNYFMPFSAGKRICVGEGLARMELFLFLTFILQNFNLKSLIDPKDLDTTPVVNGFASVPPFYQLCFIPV
Chain of Cytochrome P450 2C9 (P11712 whole entry): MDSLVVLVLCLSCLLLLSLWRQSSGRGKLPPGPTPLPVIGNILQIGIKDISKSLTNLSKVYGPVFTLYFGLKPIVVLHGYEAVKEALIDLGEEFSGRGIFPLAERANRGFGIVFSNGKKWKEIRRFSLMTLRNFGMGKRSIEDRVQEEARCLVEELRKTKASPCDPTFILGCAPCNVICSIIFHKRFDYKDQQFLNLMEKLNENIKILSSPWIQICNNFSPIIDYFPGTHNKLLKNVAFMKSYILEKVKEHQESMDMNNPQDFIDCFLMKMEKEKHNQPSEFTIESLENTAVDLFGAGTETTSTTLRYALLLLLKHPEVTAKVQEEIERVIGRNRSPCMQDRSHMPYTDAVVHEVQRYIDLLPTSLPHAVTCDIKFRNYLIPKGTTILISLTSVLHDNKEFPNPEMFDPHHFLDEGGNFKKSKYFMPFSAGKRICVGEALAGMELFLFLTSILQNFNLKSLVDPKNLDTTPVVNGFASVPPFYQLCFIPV
Chain of Cytochrome P450 2D6 (P10635 whole entry): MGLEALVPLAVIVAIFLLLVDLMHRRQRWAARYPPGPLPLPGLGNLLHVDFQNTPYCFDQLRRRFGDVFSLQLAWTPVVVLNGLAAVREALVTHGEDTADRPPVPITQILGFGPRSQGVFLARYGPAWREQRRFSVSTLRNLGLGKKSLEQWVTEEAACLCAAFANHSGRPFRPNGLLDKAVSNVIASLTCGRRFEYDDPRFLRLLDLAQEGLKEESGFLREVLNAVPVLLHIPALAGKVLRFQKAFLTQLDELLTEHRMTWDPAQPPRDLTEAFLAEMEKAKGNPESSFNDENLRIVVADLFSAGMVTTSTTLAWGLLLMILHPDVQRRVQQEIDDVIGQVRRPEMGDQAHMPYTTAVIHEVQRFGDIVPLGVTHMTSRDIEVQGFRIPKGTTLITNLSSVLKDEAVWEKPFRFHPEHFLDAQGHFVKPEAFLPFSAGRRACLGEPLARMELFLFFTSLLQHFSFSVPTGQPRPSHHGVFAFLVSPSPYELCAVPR
Chain of Cytochrome P450 3A4 (P08684 whole entry): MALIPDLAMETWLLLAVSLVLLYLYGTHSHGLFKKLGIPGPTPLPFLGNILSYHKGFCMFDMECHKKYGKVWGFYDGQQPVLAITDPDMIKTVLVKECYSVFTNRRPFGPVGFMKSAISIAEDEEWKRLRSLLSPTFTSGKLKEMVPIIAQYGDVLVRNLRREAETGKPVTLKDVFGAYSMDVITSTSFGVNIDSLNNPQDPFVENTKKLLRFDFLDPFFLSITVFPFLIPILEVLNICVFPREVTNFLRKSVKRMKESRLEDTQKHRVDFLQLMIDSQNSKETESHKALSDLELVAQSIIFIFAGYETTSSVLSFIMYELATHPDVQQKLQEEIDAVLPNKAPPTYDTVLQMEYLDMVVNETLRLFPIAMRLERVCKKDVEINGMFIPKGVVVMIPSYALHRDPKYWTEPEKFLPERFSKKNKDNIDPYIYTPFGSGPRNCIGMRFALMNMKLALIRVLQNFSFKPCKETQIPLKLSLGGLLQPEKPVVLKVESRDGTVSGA
Chain of Voltage-gated inwardly rectifying potassium channel KCNH2 (Q12809 whole entry): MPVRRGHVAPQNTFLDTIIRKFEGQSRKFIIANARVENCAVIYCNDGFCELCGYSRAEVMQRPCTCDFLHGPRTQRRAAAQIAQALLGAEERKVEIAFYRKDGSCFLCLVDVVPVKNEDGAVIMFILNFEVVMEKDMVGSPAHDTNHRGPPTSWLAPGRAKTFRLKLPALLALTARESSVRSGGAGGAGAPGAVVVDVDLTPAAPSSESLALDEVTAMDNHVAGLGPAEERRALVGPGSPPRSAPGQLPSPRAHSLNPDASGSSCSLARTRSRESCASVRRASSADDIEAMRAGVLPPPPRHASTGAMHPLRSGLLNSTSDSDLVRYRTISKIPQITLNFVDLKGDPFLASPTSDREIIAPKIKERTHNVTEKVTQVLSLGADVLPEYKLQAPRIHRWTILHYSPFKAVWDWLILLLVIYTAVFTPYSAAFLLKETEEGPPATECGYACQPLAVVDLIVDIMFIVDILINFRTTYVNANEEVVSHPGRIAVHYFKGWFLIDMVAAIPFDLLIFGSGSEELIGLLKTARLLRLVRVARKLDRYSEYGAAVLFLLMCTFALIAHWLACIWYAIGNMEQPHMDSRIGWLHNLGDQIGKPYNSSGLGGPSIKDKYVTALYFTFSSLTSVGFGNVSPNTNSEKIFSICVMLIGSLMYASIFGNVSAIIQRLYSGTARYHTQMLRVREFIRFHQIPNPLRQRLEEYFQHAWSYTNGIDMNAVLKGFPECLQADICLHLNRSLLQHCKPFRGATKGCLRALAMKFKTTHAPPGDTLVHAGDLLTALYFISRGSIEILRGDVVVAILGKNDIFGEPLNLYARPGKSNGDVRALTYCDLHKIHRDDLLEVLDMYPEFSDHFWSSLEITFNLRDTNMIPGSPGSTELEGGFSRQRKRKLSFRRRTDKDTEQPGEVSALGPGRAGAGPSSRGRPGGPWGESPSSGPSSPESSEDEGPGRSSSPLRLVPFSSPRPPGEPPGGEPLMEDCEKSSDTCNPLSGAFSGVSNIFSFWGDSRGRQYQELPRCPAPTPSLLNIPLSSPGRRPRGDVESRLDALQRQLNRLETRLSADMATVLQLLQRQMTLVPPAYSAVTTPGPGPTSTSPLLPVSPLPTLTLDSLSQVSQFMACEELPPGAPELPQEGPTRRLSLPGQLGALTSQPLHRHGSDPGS

C[C@@H]1c2nnn(-c3cnccn3)c2CCN1C(=O)c1cccc(C(F)(F)F)c1Cl
IC50 (Cytochrome P450 3A4): 2.3 µM
IC50 (Cytochrome P450 2D6): > 10 µM
IC50 (Cytochrome P450 2C9): > 10 µM
IC50 (Cytochrome P450 2C19 [1]): 4.3 µM
IC50 (Cytochrome P450 2C8): > 10 µM
IC50 (Cytochrome P450 1A2): > 10 µM
inhibition (Rattus norvegicus [2]): Dose-dependent effect
Occ (Rattus norvegicus [3]): Dose-dependent effect
ED50 (Rattus norvegicus [3]; 1 h): 0.3 mg/kg
bioavailability [4]: 77%
bioavailability [5]: 65%
half-life [6]: 2.4 h
Vd [7]: 3.3 L/kg
half-life [8]: 1.5 h
Vd [9]: 3 L/kg
clearance [10]: 33 mL/min/kg
solubility at 72 h [11]: 94.4 µM (≈ 39.9 µg/mL)
clearance [12]: 46 mL/min/kg
fraction unbound at 5 h, 5 µM [13]: 0.05
solubility at 72 h [14]: 48.2 µM (≈ 20.4 µg/mL)
fraction unbound at 6 h, 1 µM [15]: 0.084
fraction unbound at 6 h, 1 µM [16]: 0.053
fraction unbound at 6 h, 1 µM [17]: 0.063
IC50 [18]: > 10 µM

Cc1ccnc(-n2nnc3c2CCN(C(=O)c2cccc(C(F)(F)F)c2Cl)[C@@H]3C)n1
Activity (Rattus norvegicus [19]): Toxic
Activity (Rattus norvegicus [20]): Toxic
Drug metabolism [21]: Metabolite_Detected
Drug metabolism (Liver [22]): Metabolite_Detected
Drug metabolism (Liver [23]): Metabolite_Detected
Drug metabolism (Liver [24]): Metabolite_Detected
Drug metabolism (Liver [25]): Metabolite_Detected
Drug metabolism (Cytochrome P450 2C19 [26]): Metabolite_Detected
bioavailability [27]: 86%
half-life [28]: 0.7 h
Vd [29]: 1.8 L/kg
clearance [30]: 21 mL/min/kg
ED50 (Rattus norvegicus [31]): 8.3 mg/kg
Cp (Rattus norvegicus [32]): 51 ng/mL
bioavailability [4]: 3%
half-life [8]: 0.8 h
Vd [9]: 1.6 L/kg
solubility at 72 h [11]: 283 µM (≈ 124 µg/mL)
clearance [12]: 64 mL/min/kg
fraction unbound at 5 h, 5 µM [13]: 0.041
solubility at 72 h [14]: 328 µM (≈ 143 µg/mL)
fraction unbound at 6 h, 1 µM [15]: 0.085
fraction unbound at 6 h, 1 µM [16]: 0.095
fraction unbound at 6 h, 1 µM [17]: 0.095

C[C@@H]1c2nn[nH]c2CCN1C(=O)c1cccc(C(F)(F)F)c1Cl
Drug metabolism (Rattus norvegicus [33]): Metabolite_Detected
